# Laboratory results: patent US20230398130A1, “METHODS AND COMPOSITIONS FOR DIFFERENTIATING STEM CELLS” (Massachusetts Institute of Technology, priority 2020, published 2023)
# Counter-ions that a name gives are not always drawn.
# Experiments:
# ISC-enriched organoids [1] = experiment: Primary screen, 384-well 2.5-D organoid differentiation (ENR+CD, 6 days, Target Selective Inhibitor Library, vs whole-plate median): ATP (CellTiter-Glo 3D, CTG); conditions: for Dose.FC.CTG: ENR+CD, 6 days, FC vs plate median; for Dose.FC.CTG (log 2 fold change) / Dose.FC.CTG (log 2 fold change, ATP): vs plate median; for SSMD.CTG: strictly standardized mean difference
# ISC-enriched organoids [2] = experiment: Primary screen, 384-well 2.5-D organoid differentiation (ENR+CD, 6 days): carbachol-induced lysozyme secretion (LYZ.S); assay type: cell-based, murine; conditions: for Dose.FC.LYZ.S: ENR+CD, 6 days, FC vs plate median; for Dose.FC.LYZ.S (log 2 fold change) / Z.LYZ.S / SSMD.LYZ.S: primary screen; for Dose.FC.LYZ.S (log 2 fold change) / Dose.FC.LYZ.S (log 2 fold change, carbachol-induced lysozyme secretion): vs plate median; for Z.LYZ.S: standard z score; for SSMD.LYZ.S: strictly standardized mean difference
# Excerpt: (§1) High-throughput screening.
# ISC-enriched organoids [3] = experiment: Primary screen, 384-well 2.5-D organoid differentiation (ENR+CD, 6 days): basal lysozyme secretion (LYZ.NS); assay type: cell-based, murine; conditions: for Dose.FC.LYZ.NS: ENR+CD, 6 days, FC vs plate median; for Z.LYZ.NS: standard z score of FC; for Dose.FC.LYZ.NS (log 2 fold change) / Dose.FC.LYZ.NS (log 2 fold change, basal lysozyme secretion): vs plate median; for SSMD.LYZ.NS: strictly standardized mean difference
# Excerpt: as §1
# [4] = primary screen, 1st of the 4 dose lines of the treatment (dose not given)
# [5] = primary screen, 2nd of the 4 dose lines of the treatment (dose not given)
# [6] = primary screen, 3rd of the 4 dose lines of the treatment (dose not given)
# [7] = primary screen, 4th of the 4 dose lines of the treatment (dose not given)
# [8] = 1st of the 4 dose lines of the treatment (dose not given)
# [9] = 2nd of the 4 dose lines of the treatment (dose not given)
# [10] = 3rd of the 4 dose lines of the treatment (dose not given)
# [11] = 4th of the 4 dose lines of the treatment (dose not given)
smiles,measurement,setting,value
OC[C@H]1O[C@@H](c2ccc(Cl)c(Cc3ccc(O[C@H]4CCOC4)cc3)c2)[C@H](O)[C@@H](O)[C@@H]1O [Empagliflozin (BI 10773)],Dose.FC.CTG,ISC-enriched organoids [1]; Dose 0.08 uM,−0.296 log 2 fold change
same,Z.CTG,"ISC-enriched organoids [1]; Dose 0.08 uM, standard z score of FC",−0.707
same,Dose.FC.CTG,ISC-enriched organoids [1]; Dose 0.40 uM,−0.075 log 2 fold change
same,Z.CTG,"ISC-enriched organoids [1]; Dose 0.40 uM, standard z score of FC",−0.178
same,Dose.FC.CTG,ISC-enriched organoids [1]; Dose 2.00 uM,−0.192 log 2 fold change
same,Z.CTG,"ISC-enriched organoids [1]; Dose 2.00 uM, standard z score of FC",−0.458
same,Dose.FC.CTG,ISC-enriched organoids [1]; Dose 10.00 uM,−0.134 log 2 fold change
same,Z.CTG,"ISC-enriched organoids [1]; Dose 10.00 uM, standard z score of FC",−0.320
same,Dose.FC.LYZ.S,ISC-enriched organoids [2]; Dose 0.08 uM,−0.051 log 2 fold change
same,Dose.FC.LYZ.S,ISC-enriched organoids [2]; Dose 0.40 uM,−0.055 log 2 fold change
same,Dose.FC.LYZ.S,ISC-enriched organoids [2]; Dose 2.00 uM,−0.103 log 2 fold change
same,Dose.FC.LYZ.S,ISC-enriched organoids [2]; Dose 10.00 uM,−0.022 log 2 fold change
same,Dose.FC.LYZ.NS,ISC-enriched organoids [3]; Dose 0.08 uM,−0.006 log 2 fold change
same,Z.LYZ.NS,ISC-enriched organoids [3]; Dose 0.08 uM,−0.052
same,Dose.FC.LYZ.NS,ISC-enriched organoids [3]; Dose 0.40 uM,−0.034 log 2 fold change
same,Z.LYZ.NS,ISC-enriched organoids [3]; Dose 0.40 uM,−0.294
same,Dose.FC.LYZ.NS,ISC-enriched organoids [3]; Dose 2.00 uM,−0.009 log 2 fold change
same,Z.LYZ.NS,ISC-enriched organoids [3]; Dose 2.00 uM,−0.081
same,Dose.FC.LYZ.NS,ISC-enriched organoids [3]; Dose 10.00 uM,0.017 log 2 fold change
same,Z.LYZ.NS,ISC-enriched organoids [3]; Dose 10.00 uM,0.144
O=C(NCc1cccc(O)c1)Nc1nc(-c2ccncc2)cs1 [RKI-1447],Z.CTG (standard z score),"ISC-enriched organoids [1]; Dose 0.08 uM, primary screen",−0.948
same,Dose.FC.CTG (log 2 fold change),"ISC-enriched organoids [1]; Dose 0.08 uM, primary screen",−0.397
same,Z.CTG (standard z score),"ISC-enriched organoids [1]; Dose 0.40 uM, primary screen",−0.441
same,Dose.FC.CTG (log 2 fold change),"ISC-enriched organoids [1]; Dose 0.40 uM, primary screen",−0.184
same,Z.CTG (standard z score),"ISC-enriched organoids [1]; Dose 2.00 uM, primary screen",−0.540
same,Dose.FC.CTG (log 2 fold change),"ISC-enriched organoids [1]; Dose 2.00 uM, primary screen",−0.226
same,Z.CTG (standard z score),"ISC-enriched organoids [1]; Dose 10.00 uM, primary screen",−0.816
same,Dose.FC.CTG (log 2 fold change),"ISC-enriched organoids [1]; Dose 10.00 uM, primary screen",−0.342
same,Dose.FC.LYZ.S (log 2 fold change),ISC-enriched organoids [2]; Dose 0.08 uM,−0.056
same,Dose.FC.LYZ.S (log 2 fold change),ISC-enriched organoids [2]; Dose 0.40 uM,−0.064
same,Dose.FC.LYZ.S (log 2 fold change),ISC-enriched organoids [2]; Dose 2.00 uM,−0.017
same,Dose.FC.LYZ.S (log 2 fold change),ISC-enriched organoids [2]; Dose 10.00 uM,−0.297
same,Z.LYZ.NS (standard z score),"ISC-enriched organoids [3]; Dose 0.08 uM, primary screen",−0.055
same,Dose.FC.LYZ.NS (log 2 fold change),"ISC-enriched organoids [3]; Dose 0.08 uM, primary screen",−0.006
same,Z.LYZ.NS (standard z score),"ISC-enriched organoids [3]; Dose 0.40 uM, primary screen",−0.803
same,Dose.FC.LYZ.NS (log 2 fold change),"ISC-enriched organoids [3]; Dose 0.40 uM, primary screen",−0.092
same,Z.LYZ.NS (standard z score),"ISC-enriched organoids [3]; Dose 2.00 uM, primary screen",−0.077
same,Dose.FC.LYZ.NS (log 2 fold change),"ISC-enriched organoids [3]; Dose 2.00 uM, primary screen",−0.009
same,Z.LYZ.NS (standard z score),"ISC-enriched organoids [3]; Dose 10.00 uM, primary screen",−1.594
same,Dose.FC.LYZ.NS (log 2 fold change),"ISC-enriched organoids [3]; Dose 10.00 uM, primary screen",−0.183
N#C[C@@H]1CCCN1C(=O)CNC12CC3CC(CC(O)(C3)C1)C2 [Vildagliptin (LAF-237)],Z.CTG (standard z score),ISC-enriched organoids [1]; dose 0.08 uM,0.553
same,"Dose.FC.CTG (log 2 fold change, ATP)",ISC-enriched organoids [1]; dose 0.08 uM,0.232
same,Z.CTG (standard z score),ISC-enriched organoids [1]; dose 0.40 uM,0.547
same,"Dose.FC.CTG (log 2 fold change, ATP)",ISC-enriched organoids [1]; dose 0.40 uM,0.229
same,Z.CTG (standard z score),ISC-enriched organoids [1]; dose 2.00 uM,0.358
same,"Dose.FC.CTG (log 2 fold change, ATP)",ISC-enriched organoids [1]; dose 2.00 uM,0.150
same,Z.CTG (standard z score),ISC-enriched organoids [1]; dose 10.00 uM,0.811
same,"Dose.FC.CTG (log 2 fold change, ATP)",ISC-enriched organoids [1]; dose 10.00 uM,0.339
same,"Dose.FC.LYZ.S (log 2 fold change, carbachol-induced lysozyme secretion)",ISC-enriched organoids [2]; dose 0.08 uM,0.099
same,"Dose.FC.LYZ.S (log 2 fold change, carbachol-induced lysozyme secretion)",ISC-enriched organoids [2]; dose 0.40 uM,0.113
same,"Dose.FC.LYZ.S (log 2 fold change, carbachol-induced lysozyme secretion)",ISC-enriched organoids [2]; dose 2.00 uM,0.038
same,"Dose.FC.LYZ.S (log 2 fold change, carbachol-induced lysozyme secretion)",ISC-enriched organoids [2]; dose 10.00 uM,0.013
same,Z.LYZ.NS (standard z score),ISC-enriched organoids [3]; dose 0.08 uM,1.285
same,"Dose.FC.LYZ.NS (log 2 fold change, basal lysozyme secretion)",ISC-enriched organoids [3]; dose 0.08 uM,0.148
same,Z.LYZ.NS (standard z score),ISC-enriched organoids [3]; dose 0.40 uM,2.004
same,"Dose.FC.LYZ.NS (log 2 fold change, basal lysozyme secretion)",ISC-enriched organoids [3]; dose 0.40 uM,0.230
same,Z.LYZ.NS (standard z score),ISC-enriched organoids [3]; dose 2.00 uM,1.478
same,"Dose.FC.LYZ.NS (log 2 fold change, basal lysozyme secretion)",ISC-enriched organoids [3]; dose 2.00 uM,0.170
same,Z.LYZ.NS (standard z score),ISC-enriched organoids [3]; dose 10.00 uM,0.846
same,"Dose.FC.LYZ.NS (log 2 fold change, basal lysozyme secretion)",ISC-enriched organoids [3]; dose 10.00 uM,0.097
CCc1c2c(nc3ccc(OC(=O)N4CCC(N5CCCCC5)CC4)cc13)-c1cc3c(c(=O)n1C2)COC(=O)[C@]3(O)CC [Irinotecan HCl Trihydrate],Z.CTG,"ISC-enriched organoids [1]; Dose 0.08 uM, primary screen, standard z score",−0.199
same,Z.CTG,"ISC-enriched organoids [1]; Dose 0.40 uM, primary screen, standard z score",−0.491
same,Z.CTG,"ISC-enriched organoids [1]; Dose 2.00 uM, primary screen, standard z score",−0.758
same,Z.CTG,"ISC-enriched organoids [1]; Dose 10.00 uM, primary screen, standard z score",−1.404
same,SSMD.CTG,ISC-enriched organoids [1]; [4],−0.305
same,SSMD.CTG,ISC-enriched organoids [1]; [5],−0.694
same,SSMD.CTG,ISC-enriched organoids [1]; [6],−1.060
same,SSMD.CTG,ISC-enriched organoids [1]; [7],−1.809
same,Z.LYZ.S,ISC-enriched organoids [2]; [8],−0.261
same,Z.LYZ.S,ISC-enriched organoids [2]; [9],−1.020
same,Z.LYZ.S,ISC-enriched organoids [2]; [10],−1.895
same,Z.LYZ.S,ISC-enriched organoids [2]; [11],−2.375
same,SSMD.LYZ.S,ISC-enriched organoids [2]; [8],−0.311
same,SSMD.LYZ.S,ISC-enriched organoids [2]; [9],−0.747
same,SSMD.LYZ.S,ISC-enriched organoids [2]; [10],−1.550
same,SSMD.LYZ.S,ISC-enriched organoids [2]; [11],−1.941
same,SSMD.LYZ.NS,ISC-enriched organoids [3]; [4],−0.182
same,SSMD.LYZ.NS,ISC-enriched organoids [3]; [5],−0.831
same,SSMD.LYZ.NS,ISC-enriched organoids [3]; [6],−1.832
same,SSMD.LYZ.NS,ISC-enriched organoids [3]; [7],−2.032
